Measurements reported in US20090176817A1, “Method of Treatment of Diarrhea-Predominant Irritable Bowel Syndrome in a Subject” (priority 2005, published 2009).
Like-named read-outs stand apart in the source and are kept apart here. Marks after values point to notes of the source that are not given here.

Assays:
[1] = Study S.241.1.110: ex vivo protein binding in serum, healthy and renally impaired; conditions: for Fraction unbound ratio All Renal Groups Combined:Healthy / Fraction unbound ratio Mild:Healthy / Fraction unbound ratio Moderate:Healthy / Fraction unbound ratio Severe:Healthy: ratio (90% CI); for Protein bound on average: healthy subjects; for Plasma protein bound: therapeutic concentration range
Description: (§1) The ex vivo protein binding of cilansetron and its 4-hydroxy metabolites has been measured in serum samples collected in a multiple-dose study in healthy and renally impaired male and female subjects, aged 33-74 years. […] Healthy subjects were matched to renally-impaired subjects with respect to age, weight, gender, and smoking status. All subjects received oral cilansetron 2 mg TID on Days 1 to 5, and a single dose on the morning of Day 6.

[2] = clinical; type: in vitro ADME; conditions: male, human, plasma; 8 mg oral/IV, 30, 45, 120 minutes; read-out: Fraction bound
Description: Plasma protein binding was also measured in blood samples collected at 30, 45, and 120 minutes after dosing in a single-dose, crossover study in which cilansetron 8 mg was administered orally (solution and capsule) and intravenously to 18 male subjects. In samples where total and/or free concentrations were measurable, fraction bound was about 96-98%.

[3] = test system: healthy subjects; test: Study K.241.5009: esophageal visceral perception; type: in vivo, human; conditions: mean (SD); for Pressure first producing esophageal pain / Pressure first producing esophageal sensation / Volume first producing esophageal pain / Volume first producing esophageal sensation: absolute value; for Pressure first producing esophageal pain, Differences from Placebo / Pressure first producing esophageal sensation, Differences from Placebo / Volume first producing esophageal pain, Differences from Placebo / Volume first producing esophageal sensation, Differences from Placebo: not significant
Description: The effect of cilansetron on esophageal visceral perception was evaluated in a randomized, double-blind, placebo-controlled, 3-way crossover study in 12 male healthy subjects (ITT population), aged 32-62 years. Subjects received placebo, cilansetron 4 mg, or cilansetron 8 mg administered orally TID for 7 days during each of the 3 periods, with a 7-day washout between periods. Esophageal distension tests were done one hour after administration of the second dose on Day 7 of each treatment. A manually inflated intraesophageal balloon was used to produce distensions (successive 1 mL increases, up to a sensation of […] pain or a maximum balloon volume of 20 mL). The primary efficacy parameter was the distension volume inducing esophageal pain. Secondary parameters were the distension volumes and pressures leading to first esophageal sensation. The pain threshold and other secondary parameters for each of the cilansetron doses was compared to placebo using a one-sided Dunnett t-test.

[4] = both, human; for Fraction unbound ratio All Renal Groups Combined:Healthy / Fraction unbound ratio Mild:Healthy / Fraction unbound ratio Moderate:Healthy / Fraction unbound ratio Severe:Healthy: serum
Description: as §1

[5] = clinical; conditions: both, human, in vivo, 2 mg
Description: The effect of renal impairment on the pharmacokinetics of cilansetron was evaluated in a study excluding subjects with end-stage renal disease, and utilizing a single-center, open-label, multiple-dose, parallel group study in 13 male and 9 female subjects, aged 33-74 years. […] Healthy subjects were matched to renally-impaired subjects with respect to age, weight, gender, and smoking status. All subjects received oral cilansetron 2 mg TID on Days 1 to 5, and a single dose on the morning of Day 6. Blood samples for measurement of plasma pharmacokinetics of cilansetron and its 4-hydroxy metabolites were collected up to 24 hours following dosing on Day 6, and log-transformed pharmacokinetic parameters for these analytes were statistically compared between study groups. Serum concentrations of unbound cilansetron and its 4-hydroxy metabolites were also measured prior to dosing and at 1 and 1.5 hours postdose on Day 6.

[6] = test system: healthy subjects; test: Study S.241.2.104: gastric visceral perception (barostat); type: in vivo, human
Description: The effect of cilansetron on gastric perception was evaluated in a randomized, double-blind, placebo-controlled, parallel-group study in 44 male and female healthy subjects (ITT population; 22 subjects received placebo and 22 received 8 mg cilansetron), aged 19-43 years. Subjects received cilansetron 8 mg TID orally for 7 days and gastric distension tests were done at baseline (Day 1, prior to dosing) and poststudy (Day 8). An electronic barostat was used to produce isobarometric distensions (starting from 2 mmHg, progressive distensions in 2 mmHg increments were performed every 2 minutes until gastric pain occurred or an upper limit of 20 rnrnHg was reached) and isovolumetric distensions (starting from an initial volume of 200 mL, progressive distensions in 100 mL increments were performed every 2 minutes until gastric pain occurred or an upper limit of 1100 mL was reached). The primary efficacy parameter was the difference in pain threshold from baseline to poststudy, measured by the amount of distension pressure inducing gastric pain. Secondary parameters were the mean distension pressure/volume inducing the first feelings of gastric sensation and gastric discomfort, and changes in bowel habits over the treatment period. A 2-sample t-test was used to compare baseline-adjusted pain threshold and other secondary efficacy parameters between cilansetron and placebo treatments.

[7] = both, human, in vivo
Description: The effect of hepatic impairment on the pharmacokinetics of cilansetron was evaluated in a multiple-dose, parallel group study in 14 healthy and 14 moderately to severely hepatically impaired male and female subjects, aged 41-70 years. Impaired subjects (Child-Pugh score 7 to 11) were matched to healthy subjects by age (±2 years), sex, menstrual status, and smoking history status. All subjects received oral cilansetron 8 mg TID on Days 1 to 5, and a single dose on the morning of Day 6. […] Blood samples were also collected at predose on Day 1, and at predose, 1 hour and 1.5 hours postdose on Day 6, for measurement of cilansetron protein binding in serum.

[8] = 8 mg TID oral 7 days, Day 8, arith. mean
[9] = 8 mg TID oral 7 days, arith. mean
[10] = 8 mg TID oral 7 days, baseline-adjusted, 2-sample t-test, significant (p < 0.01)

Cc1nccn1CC1CCc2c(c3cccc4c3n2CC[C@H]4O)C1=O (stereo partly drawn) [(4R)-hydroxy cilansetron]
Fraction unbound ratio All Renal Groups Combined:Healthy ([1]; 1 h): 121 (109, 134)^b %
Fraction unbound ratio Mild:Healthy ([1]; 1 h): 106 (93, 121) %
Fraction unbound ratio Moderate:Healthy ([1]; 1 h): 137 (119, 157)^b %
Fraction unbound ratio Severe:Healthy ([1]; 1 h): 121 (105, 140)^b %
Fraction Unbound in Serum ([1]; Day 6 1 h, Healthy): 24.7 (7) %
Fraction Unbound in Serum ([1]; Day 6 1 h, Mild): 26.4 (14) %
Fraction Unbound in Serum ([1]; Day 6 1 h, Moderate): 34.3 (22) %
Fraction Unbound in Serum ([1]; Day 6 1 h, Severe): 30.2 (18) %
Fraction Unbound in Serum ([1]; Day 6 […], Healthy): 27.6 (15) %
Fraction Unbound in Serum ([1]; Day 6 […], Mild): 26.2 (17) %
Fraction Unbound in Serum ([1]; Day 6 […], Moderate): 28.5 (13) %
Fraction Unbound in Serum ([1]; Day 6 […], Severe): 23.7 (11) %
Fraction Unbound in Serum ([1]; Day 6 predose, Healthy): 25.3 (11) %
Fraction Unbound in Serum ([1]; Day 6 predose, Mild): 29.6 (30) %
Fraction Unbound in Serum ([1]; Day 6 predose, Moderate): 31.0 (21) %
Fraction Unbound in Serum ([1]; Day 6 predose, Severe): 32.4 (17) %
Fraction unbound ratio All Renal Groups Combined:Healthy ([1]; […]): 95 (85, 105) %
Fraction unbound ratio Mild:Healthy ([1]; […]): 95 (83, 109) %
Fraction unbound ratio Moderate:Healthy ([1]; […]): 104 (90, 120) %
Fraction unbound ratio Severe:Healthy ([1]; […]): 86 (74, 100) %
Protein bound on average [1]: 72.4-75.3%
Fraction unbound ratio All Renal Groups Combined:Healthy ([1]; predose): 121 (105, 139)^b %
Fraction unbound ratio Mild:Healthy ([1]; predose): 114 (96, 137) %
Fraction unbound ratio Moderate:Healthy ([1]; predose): 122 (100, 147) %
Fraction unbound ratio Severe:Healthy ([1]; predose): 128 (105, 155)^b %
Plasma protein bound [1]: 72-75%

Cc1nccn1CC1CCc2c(c3cccc4c3n2CC[C@@H]4O)C1=O (stereo partly drawn) [(4S)-hydroxy cilansetron]
Fraction unbound ratio All Renal Groups Combined:Healthy ([1]; 1 h): 102 (86, 121) %
Fraction unbound ratio Mild:Healthy ([1]; 1 h): 81 (65, 101) %
Fraction unbound ratio Moderate:Healthy ([1]; 1 h): 124 (98, 156) %
Fraction unbound ratio Severe:Healthy ([1]; 1 h): 106 (84, 133) %
Fraction Unbound in Serum ([1]; Day 6 1 h, Healthy): 53.6 (20) %
Fraction Unbound in Serum ([1]; Day 6 1 h, Mild): 42.8 (7) %
Fraction Unbound in Serum ([1]; Day 6 1 h, Moderate): 69.3 (45) %
Fraction Unbound in Serum ([1]; Day 6 1 h, Severe): 56.1 (15) %
Fraction Unbound in Serum ([1]; Day 6 […], Healthy): 58.0 (21) %
Fraction Unbound in Serum ([1]; Day 6 […], Mild): 46.3 (11) %
Fraction Unbound in Serum ([1]; Day 6 […], Moderate): 57.4 (28) %
Fraction Unbound in Serum ([1]; Day 6 […], Severe): 42.4 (9) %
Fraction Unbound in Serum ([1]; Day 6 predose, Healthy): 51.9 (24) %
Fraction Unbound in Serum ([1]; Day 6 predose, Mild): 48.9 (40) %
Fraction Unbound in Serum ([1]; Day 6 predose, Moderate): 54.0 (26) %
Fraction Unbound in Serum ([1]; Day 6 predose, Severe): 51.4 (30) %
Fraction unbound ratio All Renal Groups Combined:Healthy ([1]; […]): 84 (72, 99) %
Fraction unbound ratio Mild:Healthy ([1]; […]): 81 (67, 99) %
Fraction unbound ratio Moderate:Healthy ([1]; […]): 99 (80, 123) %
Fraction unbound ratio Severe:Healthy ([1]; […]): 75 (60, 93)^b %
Protein bound on average [1]: 42.0-48.1%
Fraction unbound ratio All Renal Groups Combined:Healthy ([1]; predose): 98 (79, 121) %
Fraction unbound ratio Mild:Healthy ([1]; predose): 91 (69, 121) %
Fraction unbound ratio Moderate:Healthy ([1]; predose): 104 (77, 140) %
Fraction unbound ratio Severe:Healthy ([1]; predose): 98 (73, 133) %
Plasma protein bound [1]: 42-48%

Cc1nccn1C[C@H]1CCc2c(c3cccc4c3n2CCC4)C1=O [Cilansetron, (R)-(−)-4,5,6,8,9,10-hexahydro-10-[(2-methyl-1H-imidazol-1-yl)methyl]-11H-pyrido-[3,2,1-jk]-carbazol-11-one]
fraction unbound [2]: 0.02 to 0.04
Pressure first producing esophageal pain ([3]; 4 mg TID oral 7 days): 42.3 (11.3) mmHg
Pressure first producing esophageal sensation ([3]; 4 mg TID oral 7 days): 27.4 (9.6) mmHg
Volume first producing esophageal pain ([3]; 4 mg TID oral 7 days): 14.6 (4.3) mL
Volume first producing esophageal sensation ([3]; 4 mg TID oral 7 days): 5.3 (3.5) mL
Pressure first producing esophageal pain, Differences from Placebo ([3]; 4 mg TID oral 7 days): 3.0 (24.0) mmHg
Pressure first producing esophageal sensation, Differences from Placebo ([3]; 4 mg TID oral 7 days): −2.5 (16.4) mmHg
Volume first producing esophageal pain, Differences from Placebo ([3]; 4 mg TID oral 7 days): 1.4 (4.9) mL
Volume first producing esophageal sensation, Differences from Placebo ([3]; 4 mg TID oral 7 days): −0.3 (4.8) mL
Pressure first producing esophageal pain ([3]; 8 mg TID oral 7 days): 41.0 (12.5) mmHg
Pressure first producing esophageal sensation ([3]; 8 mg TID oral 7 days): 28.4 (10.9) mmHg
Volume first producing esophageal pain ([3]; 8 mg TID oral 7 days): 13.9 (5.8) mL
Volume first producing esophageal sensation ([3]; 8 mg TID oral 7 days): 5.2 (3.6) mL
Pressure first producing esophageal pain, Differences from Placebo ([3]; 8 mg TID oral 7 days): 1.3 (22.5) mmHg
Pressure first producing esophageal sensation, Differences from Placebo ([3]; 8 mg TID oral 7 days): −2.5 (6.9) mmHg
Volume first producing esophageal pain, Differences from Placebo ([3]; 8 mg TID oral 7 days): 0.8 (3.6) mL
Volume first producing esophageal sensation, Differences from Placebo ([3]; 8 mg TID oral 7 days): −0.5 (1.8) mL
Protein bound on average [4]: 96.0-96.6%
Fraction unbound ratio All Renal Groups Combined:Healthy [4]: 81 (62, 105) %
Fraction unbound ratio Mild:Healthy [4]: 86 (61, 121) %
Fraction unbound ratio Moderate:Healthy [4]: 84 (54, 131) %
Fraction unbound ratio Severe:Healthy [4]: 73 (52, 102) %
Fraction unbound ratio All Renal Groups Combined:Healthy ([4]; 1 h): 94 (76, 116) %
Fraction unbound ratio Mild:Healthy ([4]; 1 h): 91 (70, 119) %
Fraction unbound ratio Moderate:Healthy ([4]; 1 h): 105 (79, 140) %
Fraction unbound ratio Severe:Healthy ([4]; 1 h): 87 (65, 115) %
Fraction unbound ratio All Renal Groups Combined:Healthy ([4]; […]): 88 (70, 109) %
Fraction unbound ratio Mild:Healthy ([4]; […]): 92 (69, 123) %
Fraction unbound ratio Moderate:Healthy ([4]; […]): 90 (66, 123) %
Fraction unbound ratio Severe:Healthy ([4]; […]): 81 (59, 110) %
Tmax ([5]; Tmax): 1 h
half-life ([5]; T½): 2.85 h
Mean gastric pain threshold raised vs baseline ([6]; 8 mg TID 7 days): 1.9 mmHg
Pressure first producing gastric discomfort, Poststudy [6, 8]: 11.9 mmHg
Pressure first producing gastric pain, Poststudy [6, 8]: 15.4 mmHg
Pressure first producing gastric sensation, Poststudy [6, 8]: 8.9 mmHg
Volume first producing gastric pain, Poststudy [6, 8]: 764 mL
Pressure first producing gastric discomfort, Change from Baseline [6, 9]: 0.9 mmHg
Pressure first producing gastric pain, Change from Baseline [6, 9]: 1.9 mmHg
Pressure first producing gastric sensation, Change from Baseline [6, 9]: 0.9 mmHg
Volume first producing gastric pain, Change from Baseline [6, 9]: 77 mL
Volume first producing gastric pain, Difference cilansetron versus placebo ([6]; 8 mg TID oral 7 days, baseline-adjusted, 2-sample t-test): -18 mL
Pressure first producing gastric discomfort, Difference cilansetron versus placebo [6, 10]: 2.2 mmHg
Pressure first producing gastric pain, Difference cilansetron versus placebo [6, 10]: 2.8 mmHg
Pressure first producing gastric sensation, Difference cilansetron versus placebo [6, 10]: 2.1 mmHg
Gastric discomfort threshold raised ([6]; in vivo): 0.9 mmHg
Gastric pain threshold mean increase vs placebo ([6]; in vivo): 2.8 mmHg
Gastric sensation threshold raised ([6]; in vivo): 0.9 mmHg
Mean volume to reach gastric pain threshold raised ([6]; in vivo): 77.3 mL
Gastric discomfort threshold treatment increase ([6]; vs placebo): 2.2 mmHg
Gastric sensation threshold treatment increase ([6]; vs placebo): 2.1 mmHg
Volume difference between treatments ([6]; vs placebo): -18.0 mL
Increase in half-life with hepatic impairment [7]: 2 fold
AUC increase with hepatic impairment ([7]; 8 mg): 88%
Cmax increase with hepatic impairment ([7]; 8 mg): 22%
AUC(0-τ) Ratio ([7]; po, 8 mg): 1.88
AUC(0-τ), Geom. LS Mean ([7]; po, 8 mg): 178 ng·h/mL
Cmax ([7]; po, 8 mg): 75.2 (40) ng/mL
Cmax Ratio ([7]; po, 8 mg): 1.22
Cmax, Geom. LS Mean ([7]; po, 8 mg): 68.7 ng/mL
T½ ([7]; po, 8 mg): 4.37 (25) h
Vz/F ([7]; po, 8 mg): 303 (45) L
